We go through two compounds from patent US9593362B2, “Fluorogenic glycosidase substrate and associated detection method” (ECOLE NORMALE SUPERIEURE DE LYON, priority 2012, dated 2017).

The conditions of data set [1]: cited from earlier work.
The nature of data set [2]: Negative control of the enzymatic assay: probe in buffered aqueous medium without enzyme (background fluorescence / hydrolytic robustness). To be noted: probe 25 μM, no b-gal, pH 7.4, 25° C., excitation 355 / detection 510 nm. Format: physicochemical. The protocol: (§1) Probe I.1 was evaluated by incubation with the target enzyme beta-galactosidase (EC 3.2.1.23; <<b-gal>>; commercial) in in vitro medium and in multi-well micro-plates designed for fluorescence readers.
(§2) The main assays were conducted at 25° C. in solutions buffered at pH 7.4, physiological pH). Assays at 37° C. would have required protection of the wells against early evaporation e.g. by covering with a film which would have caused a strong reduction in the sensitivity of fluorescence measurement. A temperature of 25° C. was therefore preferred.
(§3) The following enzymatic assays of probe I.1 were performed in a 96-well microplate in a microplate spectrofluorimeter of Mithras LB 940 type by BERTHOLD TECHNOLOGIES. The excitation wavelength was set at 355 and the detection wavelength at 510 nm, conforming to the spectral properties of dichloro-HPQ.

In data set [3] the test system is beta-galactosidase (EC 3.2.1.23; b-gal). Nature of the data set: Enzymatic assay: incubation of the probe with beta-galactosidase, microplate fluorescence. Format: biochemical. The protocol:
as §1, §2
In the invention when implementing the enzymatic assays, once the minimum concentration allowing triggering of crystal nucleation is reached, there is depositing of a solid fluorophore in a well of a multi-well plate.
as §3

Data set [4] has as its system cells of C17.2 type which express the target enzyme b-gal constitutively. The experiment in a line: Incubation of the probe with C17.2 cells, microplate fluorescence. It counts as cell-based. To be noted: probe 25 μM, culture plate without serum. The protocol:
The experiment was conducted in a cell culture plate without serum, and the fluorescence signal was measured by the microplate spectrofluorimeter of Mithras LB 940 type by BERTHOLD TECHNOLOGIES.

Data set [5] has as its system cells expressing b-gal constitutively. Nature of the data set: Fluorescence microscopy of cells incubated with the probe. Format: cell-based. To be noted: probe 25 μM, 48 hours, serum-free medium. How it is done: FIG. 4 is a microscope image of the fluorescence of cells expressing b-gal constitutively and which were incubated by probe I.1 at 25 μM for 48 hours in a serum-free medium.

As for `O=c1[nH]c(-c2cc(Cl)ccc2O)nc2ccc(Cl)cc12` [dichloro-HPQ, 6-chloro-2-(5-chloro-2-hydroxyphenyl)-4(3H)-Quinazolinone], the “solubility in aqueous/physiological media” value in data set [1] is reported as “fully insoluble”.
For the compound `O=C(Oc1ccc(Cl)cc1-c1nc2ccc(Cl)cc2c(=O)[nH]1)N1CCCCC1CO[C@@H]1O[C@H](CO)[C@H](O)[C@H](O)[C@H]1O` (stereo partly shown) [probe I.1], the “trend in the fluorescence signal in the absence of enzyme (negative control)” value in data set [2] is “total absence of a fluorescence signal”. Besides, the “trend in fluorescence signal with increasing probe concentration” value in data set [3] (b-gal fixed at 20 μM, three concentrations of probe) was “Strong growth of the signal”. In data set [3] (probe fixed at 25 μM, three concentrations of b-gal), the “dependence of the fluorescence signal on the concentration of target enzyme” value is recorded as “independency of the signal”. In data set [4], the “capacity to cross the cell membrane” value is “cross the cell membrane” and the “conversion by intracellular b-gal (fluorescence signal)” value is “converted by the enzyme”. Besides, in data set [5], the “fluorescent precipitate in cells (microscope image)” value is “highly fluorescent dichloro-HPQ is precipitated”.
